Results taken from patent US9428519B2, “Acylated derivative of homoharringtonine, preparation method therefor, and application thereof” (HANGZHOU BENSHENG PHARMACEUTICAL CO., LTD., priority 2011, dated 2016).
Values after ≈ are worked out from the molar mass of the structure shown.

How the values were obtained:
[1] = test system: RPMI8226 (multiple myeloma); assay: MTT growth inhibition of multiple myeloma cells, 72 h; assay type: cell-based, human; settings: Homo sapiens, RPMI-8226, MTT
Outline: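 RPMI8226 cells (6000/well) in 1640 medium with 10% FBS were exposed to graded compound concentrations for 72 h at 37 °C, 5% CO2. Viable cells were read by MTT, normalised to untreated control as 100% viability, and 72 h IC50 calculated.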

[2] = test system: Kasumi-1 (acute myeloid leukemia M2 type, AML-M2); assay: MTT growth inhibition of leukemia cells, 72 h; assay type: cell-based, human; settings: Homo sapiens, Kasumi 1, MTT
Outline: (§1)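 Seed 6000 cells/well (1640, 10% FBS); add compound at several concentrations, mix; incubate 72 h, 37 °C, 5% CO2; MTT read; % viability vs untreated control; IC50 at 72 h.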

[3] = test system: Jurkat (acute lymphoblastic leukemia, ALL); assay: MTT growth inhibition of leukemia cells, 72 h; assay type: cell-based, human; settings: Homo sapiens, Jurkat
Outline: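 Jurkat human acute lymphoblastic leukemia cells were seeded at 6000 cells per well in 96-well plates containing 1640 medium with 10% fetal bovine serum. Test compounds were added across a range of concentrations, and plates were held at 37° C. in 5% CO2 for 72 hours before viable cells were quantified by MTT.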

[4] = test system: H9 (acute lymphoblastic leukemia, ALL); assay: MTT growth inhibition of leukemia cells, 72 h; assay type: cell-based, human; settings: Homo sapiens, MTT
Outline: as §1

[5] = test system: K562/adr (drug-resistant, chronic myeloid leukemia, CML); assay: MTT growth inhibition of leukemia cells, 72 h; assay type: cell-based, human; settings: Homo sapiens, K562/Adr, MTT
Outline: as §1

[6] = test system: NB4 (acute promyelocytic leukemia, AML); assay: MTT growth inhibition of leukemia cells, 72 h; assay type: cell-based, human; settings: Homo sapiens, MTT
Outline: as §1

[7] = test system: Huh7 (human liver cancer cell); assay: MTT growth inhibition of human solid tumor cells, 72 h; assay type: cell-based; settings: Homo sapiens, Huh-7
Outline: (§2)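 MTT determination of viable cells gives percent viability, normalised to untreated wells taken as 100%. Cells (4000 per well) grew 24 h in serum-supplemented DMEM high glucose, then faced graded compound concentrations for 72 h at 37° C under 5% CO2.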

[8] = test system: PANC-1 (pancreatic cancer); assay: as above; assay type: cell-based; settings: Homo sapiens, PANC-1, MTT
Outline: as §2

[9] = test system: RKO (human colon adenocarcinoma cell); assay: as above; assay type: cell-based; settings: Homo sapiens, MTT
Outline: as §2

[10] = test system: U87 MG (malignant glioma cell); assay: as above; assay type: cell-based; settings: Homo sapiens, U-87 MG
Outline: as §2

[11] = test system: MGC 803 (human gastric cancer cell); assay: as above; assay type: cell-based; settings: Homo sapiens, MGC-803
Outline: as §2

PC-3 (prostate cancer) = assay: as above; assay type: cell-based; settings: Homo sapiens, MTT
Outline: as §2

A549 (human lung cancer) = assay: as above; assay type: cell-based; settings: Homo sapiens, A549
Outline: as §2

[12] = test system: CaES-17 (esophageal cancer cell); assay: as above; assay type: cell-based; settings: Homo sapiens, CaEs17
Outline: as §2

[13] = test system: Becap37 (human breast cancer cell); assay: as above; assay type: cell-based; settings: Homo sapiens
Outline: as §2

[14] = test system: SK-OV-3 (ovarian cancer cell); assay: as above; assay type: cell-based; settings: Homo sapiens, SK-OV-3, MTT
Outline: as §2

MG63 (osteosarcoma) = assay: as above; assay type: cell-based; settings: Homo sapiens, MG-63, MTT
Outline: as §2

[15] = test system: CNE (nasopharyngeal carcinoma cell); assay: as above; assay type: cell-based
Outline: as §2

[16] = test system: Hep-2 (laryngeal carcinoma); assay: as above; assay type: cell-based; settings: Homo sapiens, HEp-2
Outline: as §2

[17] = test system: Hela (human cervical cancer cell); assay: as above; assay type: cell-based; settings: Homo sapiens, HeLa, MTT
Outline: as §2

COC(=O)C[C@](O)(CCCC(C)(C)OC(=O)C1CCCC1)C(=O)O[C@@H]1C(OC)=C[C@]23CCCN2CCc2cc4c(cc2[C@H]13)OCO4 [BS-HH-077]
IC50 [1]: 4 ng/mL (≈ 0.00623 µM)
IC90 [1]: 0.024 µg/mL (≈ 0.0374 µM)
IC50 [2]: 4 ng/mL (≈ 0.00623 µM)
IC90 [2]: 0.012 µg/mL (≈ 0.0187 µM)
IC50 [3]: 1 ng/mL (≈ 0.00156 µM)
IC90 [3]: 11.4 µg/mL (≈ 17.7 µM)
IC50 [4]: 0.01 µg/mL (≈ 0.0156 µM)
IC90 [4]: 0.03 µg/mL (≈ 0.0467 µM)
IC50 [5]: 0.01 µg/mL (≈ 0.0156 µM)
IC90 [5]: 0.05 µg/mL (≈ 0.0779 µM)
IC50 [6]: 9 ng/mL (≈ 0.014 µM)
IC90 [6]: 0.022 µg/mL (≈ 0.0343 µM)
IC50 [7]: 0.016 µg/mL (≈ 0.0249 µM)
IC90 [7]: 0.36 µg/mL (≈ 0.561 µM)
IC50 [8]: 0.055 µg/mL (≈ 0.0857 µM)
IC90 [8]: > 16 µg/mL
IC50 [9]: 6 ng/mL (≈ 0.00935 µM)
IC90 [9]: 0.02 µg/mL (≈ 0.0312 µM)
IC50 [10]: 0.035 µg/mL (≈ 0.0545 µM)
IC90 [10]: 0.16 µg/mL (≈ 0.249 µM)
IC50 [11]: 0.021 µg/mL (≈ 0.0327 µM)
IC90 [11]: 0.087 µg/mL (≈ 0.136 µM)
IC50 (PC-3 (prostate cancer)): 0.039 µg/mL (≈ 0.0608 µM)
IC90 (PC-3 (prostate cancer)): > 16 µg/mL
IC50 (A549 (human lung cancer)): 0.02 µg/mL (≈ 0.0312 µM)
IC90 (A549 (human lung cancer)): > 16 µg/mL
IC50 [12]: 0.031 µg/mL (≈ 0.0483 µM)
IC90 [12]: 16 µg/mL (≈ 24.9 µM)
IC50 [13]: 7 ng/mL (≈ 0.0109 µM)
IC90 [13]: 11.1 µg/mL (≈ 17.3 µM)
IC50 [14]: 0.034 µg/mL (≈ 0.053 µM)
IC90 [14]: > 16 µg/mL
IC50 (MG63 (osteosarcoma)): 0.021 µg/mL (≈ 0.0327 µM)
IC90 (MG63 (osteosarcoma)): 5.14 µg/mL (≈ 8.01 µM)
IC50 ([15]; Homo sapiens, MTT): 0.012 µg/mL (≈ 0.0187 µM)
IC90 ([15]; Homo sapiens, MTT): > 16 µg/mL
anti-CNE effect relative to homoharringtonine ([15]; vs HHT): more than 3 fold
IC50 [16]: 7 ng/mL (≈ 0.0109 µM)
IC90 [16]: > 16 µg/mL
IC50 [17]: 0.014 µg/mL (≈ 0.0218 µM)
IC90 [17]: 16 µg/mL (≈ 24.9 µM)
